Data reported in PubChem BioAssay AID1259407 (Chemical Carcinogenesis Research Information System (CCRIS), 2018).
Active and inactive are the calls of the source. The rule behind the calls is not given here.

Test system: CCRIS mutagenicity, Ames/micronucleus/aberration tests
Test: CCRIS mutagenicity studies

**Q.** Which results are given for `CC(=O)Nc1ccc(-c2ccc(N)cc2)cc1`?
**A.** mutagenic call (Test System: AMES SALMONELLA TYPHIMURIUM, Strain/Indicator: TA1538, Metabolic Activation: GUINEA PIG, LIVER, HEPATOCYTES, Method: PREINCUBATION): active; positive; mutagenic call (Test System: AMES SALMONELLA TYPHIMURIUM, Strain/Indicator: TA1538, Metabolic Activation: GUINEA PIG, LIVER, S-9, ACETYL-COA (0.1 OR 1 MILLIMOLAR), Method: PREINCUBATION): active; positive; mutagenic call (Test System: AMES SALMONELLA TYPHIMURIUM, Strain/Indicator: TA1538, Metabolic Activation: GUINEA PIG, LIVER, S-9, Method: PREINCUBATION): active; positive; mutagenic call (Test System: AMES SALMONELLA TYPHIMURIUM, Strain/Indicator: TA1538, Metabolic Activation: HAMSTER, LIVER, HEPATOCYTES, Method: PREINCUBATION): active; positive; mutagenic call (Test System: AMES SALMONELLA TYPHIMURIUM, Strain/Indicator: TA1538, Metabolic Activation: HAMSTER, LIVER, S-9, ACETYL-COA (0.1 OR 1 MILLIMOLAR), Method: PREINCUBATION): active; positive; mutagenic call (Test System: AMES SALMONELLA TYPHIMURIUM, Strain/Indicator: TA1538, Metabolic Activation: HAMSTER, LIVER, S-9, Method: PREINCUBATION): active; positive; mutagenic call (Test System: AMES SALMONELLA TYPHIMURIUM, Strain/Indicator: TA1538, Metabolic Activation: RAT, LIVER, HEPATOCYTES, Method: PREINCUBATION): active; positive; mutagenic call (Test System: AMES SALMONELLA TYPHIMURIUM, Strain/Indicator: TA1538, Metabolic Activation: RAT, LIVER, S-9, ACETYL-COA (0.1 OR 1 MILLIMOLAR), Method: PREINCUBATION): active; positive; mutagenic call (Test System: AMES SALMONELLA TYPHIMURIUM, Strain/Indicator: TA1538, Metabolic Activation: RAT, LIVER, S-9, Method: PREINCUBATION): active; positive; mutagenic call (Test System: Ames Salmonella typhimurium, Strain/Indicator: TA102, Metabolic Activation: None, Method: Preincubation): inactive; negative; mutagenic call (Test System: Ames Salmonella typhimurium, Strain/Indicator: TA102, Metabolic Activation: Rat, liver, S-9, Aroclor 1254, 4%, Method: Preincubation): active; positive

**Q.** `O=Cc1ccccc1Cl` was tested. Which mutagenic call (Test System: AMES SALMONELLA TYPHIMURIUM, Strain/Indicator: TA97, Metabolic Activation: HAMSTER, LIVER, S-9, AROCLOR 1254 (10%), Method: PREINCUBATION) did it give?
**A.** inactive; negative

**Q.** And the mutagenic call (Test System: AMES SALMONELLA TYPHIMURIUM, Strain/Indicator: TA97, Metabolic Activation: HAMSTER, LIVER, S-9, AROCLOR 1254 (30%), Method: PREINCUBATION)?
**A.** inactive; negative

**Q.** What about the mutagenic call (Test System: AMES SALMONELLA TYPHIMURIUM, Strain/Indicator: TA97, Metabolic Activation: NONE, Method: PREINCUBATION) of the same molecule?
**A.** inactive; negative

**Q.** What about the mutagenic call (Test System: AMES SALMONELLA TYPHIMURIUM, Strain/Indicator: TA97, Metabolic Activation: RAT, LIVER, S-9, AROCLOR 1254 (10%), Method: PREINCUBATION) of the same molecule?
**A.** inactive; negative

**Q.** And the mutagenic call (Test System: AMES SALMONELLA TYPHIMURIUM, Strain/Indicator: TA97, Metabolic Activation: RAT, LIVER, S-9, AROCLOR 1254 (30%), Method: PREINCUBATION)?
**A.** inactive; negative

**Q.** And the mutagenic call (Test System: AMES SALMONELLA TYPHIMURIUM, Strain/Indicator: TA98, Metabolic Activation: HAMSTER, LIVER, S-9, AROCLOR 1254 (10%), Method: PREINCUBATION)?
**A.** inactive; negative

**Q.** And the mutagenic call (Test System: AMES SALMONELLA TYPHIMURIUM, Strain/Indicator: TA98, Metabolic Activation: HAMSTER, LIVER, S-9, AROCLOR 1254 (30%), Method: PREINCUBATION)?
**A.** inactive; negative

**Q.** What about the mutagenic call (Test System: AMES SALMONELLA TYPHIMURIUM, Strain/Indicator: TA98, Metabolic Activation: NONE, Method: PREINCUBATION) of the same molecule?
**A.** inactive; negative

**Q.** What about the mutagenic call (Test System: AMES SALMONELLA TYPHIMURIUM, Strain/Indicator: TA98, Metabolic Activation: RAT LIVER S-9, PCB, Method: PREINCUBATION) of the same molecule?
**A.** inactive; negative

**Q.** And the mutagenic call (Test System: AMES SALMONELLA TYPHIMURIUM, Strain/Indicator: TA98, Metabolic Activation: RAT, LIVER, S-9, AROCLOR 1254 (10%), Method: PREINCUBATION)?
**A.** inactive; negative

**Q.** What about the mutagenic call (Test System: AMES SALMONELLA TYPHIMURIUM, Strain/Indicator: TA98, Metabolic Activation: RAT, LIVER, S-9, AROCLOR 1254 (30%), Method: PREINCUBATION) of the same molecule?
**A.** inactive; negative

**Q.** What about the mutagenic call (Test System: AMES SALMONELLA TYPHIMURIUM, Strain/Indicator: TA100, Metabolic Activation: HAMSTER, LIVER, S-9, AROCLOR 1254 (10%), Method: PREINCUBATION) of the same molecule?
**A.** inactive; negative

**Q.** What about the mutagenic call (Test System: AMES SALMONELLA TYPHIMURIUM, Strain/Indicator: TA100, Metabolic Activation: HAMSTER, LIVER, S-9, AROCLOR 1254 (30%), Method: PREINCUBATION) of the same molecule?
**A.** inactive; negative

**Q.** And the mutagenic call (Test System: AMES SALMONELLA TYPHIMURIUM, Strain/Indicator: TA100, Metabolic Activation: NONE, Method: PREINCUBATION)?
**A.** inactive; negative

**Q.** What about the mutagenic call (Test System: AMES SALMONELLA TYPHIMURIUM, Strain/Indicator: TA100, Metabolic Activation: RAT LIVER S-9, PCB, Method: PREINCUBATION) of the same molecule?
**A.** inactive; negative

**Q.** What about the mutagenic call (Test System: AMES SALMONELLA TYPHIMURIUM, Strain/Indicator: TA100, Metabolic Activation: RAT, LIVER, S-9, AROCLOR 1254 (10%), Method: PREINCUBATION) of the same molecule?
**A.** inactive; negative

**Q.** And the mutagenic call (Test System: AMES SALMONELLA TYPHIMURIUM, Strain/Indicator: TA100, Metabolic Activation: RAT, LIVER, S-9, AROCLOR 1254 (30%), Method: PREINCUBATION)?
**A.** inactive; negative

**Q.** And the mutagenic call (Test System: AMES SALMONELLA TYPHIMURIUM, Strain/Indicator: TA104, Metabolic Activation: NONE, Method: PREINCUBATION)?
**A.** inactive; negative

**Q.** And the mutagenic call (Test System: AMES SALMONELLA TYPHIMURIUM, Strain/Indicator: TA104, Metabolic Activation: RAT LIVER S-9, PCB, Method: PREINCUBATION)?
**A.** inactive; negative

**Q.** What about the mutagenic call (Test System: AMES SALMONELLA TYPHIMURIUM, Strain/Indicator: TA1535, Metabolic Activation: HAMSTER, LIVER, S-9, AROCLOR 1254 (10%), Method: PREINCUBATION) of the same molecule?
**A.** inactive; negative

**Q.** What about the mutagenic call (Test System: AMES SALMONELLA TYPHIMURIUM, Strain/Indicator: TA1535, Metabolic Activation: HAMSTER, LIVER, S-9, AROCLOR 1254 (30%), Method: PREINCUBATION) of the same molecule?
**A.** inactive; negative

**Q.** And the mutagenic call (Test System: AMES SALMONELLA TYPHIMURIUM, Strain/Indicator: TA1535, Metabolic Activation: NONE, Method: PREINCUBATION)?
**A.** inactive; negative

**Q.** And the mutagenic call (Test System: AMES SALMONELLA TYPHIMURIUM, Strain/Indicator: TA1535, Metabolic Activation: RAT, LIVER, S-9, AROCLOR 1254 (10%), Method: PREINCUBATION)?
**A.** inactive; negative

**Q.** And the mutagenic call (Test System: AMES SALMONELLA TYPHIMURIUM, Strain/Indicator: TA1535, Metabolic Activation: RAT, LIVER, S-9, AROCLOR 1254 (30%), Method: PREINCUBATION)?
**A.** inactive; negative

**Q.** What about the mutagenic call (Test System: AMES SALMONELLA TYPHIMURIUM, Strain/Indicator: TA1537, Metabolic Activation: HAMSTER, LIVER, S-9, AROCLOR 1254 (30%), Method: PREINCUBATION) of the same molecule?
**A.** inactive; negative

**Q.** What about the mutagenic call (Test System: AMES SALMONELLA TYPHIMURIUM, Strain/Indicator: TA1537, Metabolic Activation: NONE, Method: PREINCUBATION) of the same molecule?
**A.** inactive; negative

**Q.** What about the mutagenic call (Test System: AMES SALMONELLA TYPHIMURIUM, Strain/Indicator: TA1537, Metabolic Activation: RAT, LIVER, S-9, AROCLOR 1254 (30%), Method: PREINCUBATION) of the same molecule?
**A.** inactive; negative

**Q.** What about the mutagenic call (Test System: E.COLI, Strain/Indicator: WP2 UVRA, Metabolic Activation: RAT LIVER S-9, PCB, Method: PREINCUBATION) of the same molecule?
**A.** inactive; negative

**Q.** Which results are given for `CN(C)S(=O)(=O)N(SC(F)(Cl)Cl)c1ccccc1`?
**A.** mutagenic call (Test System: AMES SALMONELLA TYPHIMURIUM, Strain/Indicator: TA102, Metabolic Activation: NONE, Method: STANDARD PLATE): inactive; negative; mutagenic call (Test System: AMES SALMONELLA TYPHIMURIUM, Strain/Indicator: TA102, Metabolic Activation: RAT, LIVER, S-9, PHENOBARBITAL, Method: STANDARD PLATE): inactive; negative; mutagenic call (Test System: AMES SALMONELLA TYPHIMURIUM, Strain/Indicator: TA104, Metabolic Activation: NONE, Method: STANDARD PLATE): inactive; negative; mutagenic call (Test System: AMES SALMONELLA TYPHIMURIUM, Strain/Indicator: TA104, Metabolic Activation: RAT, LIVER, S-9, PHENOBARBITAL, Method: STANDARD PLATE): inactive; negative; mutagenic call (Test System: E. COLI, Strain/Indicator: WP2HCR, Metabolic Activation: NONE, Method: STANDARD PLATE): active; positive; mutagenic call (Test System: E. COLI, Strain/Indicator: WP2HCR, Metabolic Activation: S-9 MIX, Method: STANDARD PLATE): inactive; negative

**Q.** With `C[C@]12CC[C@@H]3c4ccc(O)c(O)c4CC[C@H]3[C@@H]1CC[C@@H]2O` as the molecule, how does the mutagenic call (Test System: Ames Salmonella Typhimurium, Strain/Indicator: TA98, Metabolic Activation: None, Method: Standard plate) read?
**A.** inactive; negative

**Q.** And the mutagenic call (Test System: Ames Salmonella Typhimurium, Strain/Indicator: TA98, Metabolic Activation: Rat, liver, S-9 (0.5 ml), Method: Standard plate)?
**A.** inactive; negative

**Q.** And the mutagenic call (Test System: Ames Salmonella Typhimurium, Strain/Indicator: TA100, Metabolic Activation: None, Method: Standard plate)?
**A.** inactive; negative

**Q.** What about the mutagenic call (Test System: Ames Salmonella typhimurium, Strain/Indicator: TA100, Metabolic Activation: Rat, liver, S-9, Method: Standard plate) of the same molecule?
**A.** inactive; negative

**Q.** For `O=[N+]([O-])c1ccc2ccc3c4c(cc5ccc1c2c53)[C@H](O)[C@@H](O)C=C4`, which mutagenic call (Test System: AMES SALMONELLA TYPHIMURIUM, Strain/Indicator: TA98, Metabolic Activation: NONE) is on record?
**A.** active; positive

**Q.** And the mutagenic call (Test System: AMES SALMONELLA TYPHIMURIUM, Strain/Indicator: TA98, Metabolic Activation: RAT, LIVER, S-9, AROCLOR 1254)?
**A.** active; positive

**Q.** What about the mutagenic call (Test System: CHINESE HAMSTER OVARY, Strain/Indicator: CHO-K1-BH4 (HGPRT), Metabolic Activation: NONE) of the same molecule?
**A.** active; positive

**Q.** What about the mutagenic call (Test System: CHINESE HAMSTER OVARY, Strain/Indicator: CHO-K1-BH4 (HGPRT), Metabolic Activation: RAT, LIVER, S-9, 3-METHYLCHOLANTHRENE) of the same molecule?
**A.** active; positive
